Data published in ChEMBL document CHEMBL3525956, “Species independence in brain tissue binding using brain homogenates” (Drug Metab Dispos, 2011).

Experiments:
[1] = Fraction unbound in Beagle dog brain homogenates at 1 uM after 6 hrs by equilibrium dialysis method; settings: brain homogenate
[2] = Fraction unbound in Sprague-Dawley rat brain homogenates at 1 uM after 6 hrs by equilibrium dialysis method; settings: brain homogenate
[3] = Fraction unbound in Hartley guinea pig brain homogenates at 1 uM after 6 hrs by equilibrium dialysis method; settings: brain homogenate
[4] = Fraction unbound in human occipital cortex at 1 uM after 6 hrs by equilibrium dialysis method
[5] = Fraction unbound in CD-1 mouse brain homogenates at 1 uM after 6 hrs by equilibrium dialysis method; settings: brain homogenate
[6] = Fraction unbound in Wistar Han rat brain homogenates at 1 uM after 6 hrs by equilibrium dialysis method; settings: brain homogenate
[7] = Fraction unbound in cynomolgus monkey brain homogenates at 1 uM after 6 hrs by equilibrium dialysis method; settings: brain homogenate

Row | SMILES | fraction unbound at 6 h, 1 µM [1] | fraction unbound at 6 h, 1 µM [2] | fraction unbound at 6 h, 1 µM [3] | fraction unbound at 6 h, 1 µM [4] | fraction unbound at 6 h, 1 µM [5] | fraction unbound at 6 h, 1 µM [6] | fraction unbound at 6 h, 1 µM [7]
1 | NC(=O)N1c2ccccc2C=Cc2ccccc21 [CARBAMAZEPINE] | 0.159 | 0.124 | 0.128 | 0.171 | 0.173 | 0.171 | 0.185
2 | CN1[C@@H]2CC[C@H]1C[C@@H](OC(=O)c1c[nH]c3ccccc13)C2 [TROPISETRON] | 0.047 | 0.045 | 0.048 | 0.053 | 0.059 | 0.056 | 0.064
3 | NC12CC3CC(CC(C3)C1)C2 [AMANTADINE] | 0.218 | 0.147 | 0.178 | 0.171 | 0.181 | 0.213 | 0.1
4 | CN(C)CCCN1c2ccccc2Sc2ccc(Cl)cc21 [CHLORPROMAZINE] | 0.003 | 0.002 | 0.003 | 0.003 | 0.003 | 0.003 | 0.004
5 | CC(C)(C)NCC(O)COc1ccc(NC(=O)NC2CCCCC2)cc1 (configuration not stated) [TALINOLOL] | 0.247 | 0.096 | 0.117 | 0.137 | 0.117 | 0.141 | 0.176
6 | COCCOC(=O)C1=C(C)NC(C)=C(C(=O)OC(C)C)C1c1cccc([N+](=O)[O-])c1 (configuration not stated) [NIMODIPINE] | 0.007 | 0.009 | 0.007 | 0.008 | 0.007 | 0.01 | 0.009
7 | CN(C)CCCC1(c2ccc(F)cc2)OCc2cc(C#N)ccc21 (configuration not stated) [CITALOPRAM] | 0.057 | 0.03 | 0.038 | 0.047 | 0.06 | 0.05 | 0.061
8 | C[C@@H](O[C@H]1OCCN(Cc2n[nH]c(=O)[nH]2)[C@H]1c1ccc(F)cc1)c1cc(C(F)(F)F)cc(C(F)(F)F)c1 [APREPITANT] | 0.001 | 0.001 | 0.001 | 0.001 | 0.002 | 0.001 | 0.002
9 | Cc1nc2n(c(=O)c1CCN1CCC(c3noc4cc(F)ccc34)CC1)CCCC2O (configuration not stated) [PALIPERIDONE] | 0.126 | 0.078 | 0.101 | 0.116 | 0.129 | 0.092 | 0.1
10 | CO[C@H]1/C=C/O[C@@]2(C)Oc3c(C)c(O)c4c(O)c(c(/C=N/N5CCN(C)CC5)c(O)c4c3C2=O)NC(=O)/C(C)=C\C=C\[C@H](C)[C@H](O)[C@@H](C)[C@@H](O)[C@@H](C)[C@H](OC(C)=O)[C@@H]1C [RIFAMPIN] | 0.259 | 0.068 | 0.118 | 0.119 | 0.121 | 0.121 | 0.162
11 | CC(NC(C)(C)C)C(=O)c1cccc(Cl)c1 (configuration not stated) [BUPROPION] | 0.213 | 0.171 | 0.177 | 0.195 | 0.133 | 0.132 | 0.167
12 | COc1ccc2c(c1)c(CC(=O)O)c(C)n2C(=O)c1ccc(Cl)cc1 [INDOMETHACIN] | 0.035 | 0.028 | 0.044 | 0.055 | 0.052 | 0.044 | 0.053
13 | CNCCCN1c2ccccc2CCc2ccccc21 [DESIPRAMINE] | 0.017 | 0.008 | 0.007 | 0.011 | 0.011 | 0.013 | 0.012
14 | O=C(O[C@H]1CN2CCC1CC2)N1CCc2ccccc2[C@@H]1c1ccccc1 [SOLIFENACIN] | 0.018 | 0.015 | 0.014 | 0.017 | 0.016 | 0.019 | 0.016
15 | CN1Cc2c(N)cccc2C(c2ccccc2)C1 (configuration not stated) [NOMIFENSINE] | 0.072 | 0.064 | 0.068 | 0.071 | 0.078 | 0.066 | 0.068
16 | Fc1ccc([C@@H]2CCNC[C@H]2COc2ccc3c(c2)OCO3)cc1 [PAROXETINE] | 0.004 | 0.006 | 0.003 | 0.005 | 0.004 | 0.004 | 0.006
17 | Cc1ccc(C(=O)c2cc(O)c(O)c([N+](=O)[O-])c2)cc1 [TOLCAPONE] | 0.05 | 0.007 | 0.002 | 0.003 | 0.002 | 0.001 | 0.003
18 | CCCCN1CCCCC1C(=O)Nc1c(C)cccc1C (configuration not stated) [BUPIVACAINE] | 0.211 | 0.098 | 0.204 | 0.232 | 0.274 | 0.15 | 0.195
19 | O=C1NC(=O)C(c2ccccc2)(c2ccccc2)N1 [PHENYTOIN] | 0.259 | 0.134 | 0.082 | 0.095 | 0.088 | 0.1 | 0.114
20 | NC1CCN(c2c(F)cc3c(=O)c(C(=O)O)cn(C4CC4)c3c2Cl)C1 (configuration not stated) [CLINAFLOXACIN] | 0.398 | 0.435 | 0.167 | 0.157 | 0.377 | 0.148 | 0.139
21 | O=c1n(CCCN2CCN(c3cccc(Cl)c3)CC2)nc2ccccn12 [TRAZODONE] | 0.066 | 0.062 | 0.059 | 0.077 | 0.086 | 0.085 | 0.082
22 | CCN(CC)CCNC(=O)c1cc(Cl)c(N)cc1OC [METOCLOPRAMIDE] | 0.294 | 0.145 | 0.237 | 0.295 | 0.23 | 0.224 | 0.413
23 | CN1CCCC(n2nc(Cc3ccc(Cl)cc3)c3ccccc3c2=O)CC1 (configuration not stated) [AZELASTINE] | 0.011 | 0.009 | 0.009 |  | 0.012 | 0.012 | 0.014
24 | O=C1CCc2ccc(OCCCCN3CCN(c4cccc(Cl)c4Cl)CC3)cc2N1 [ARIPIPRAZOLE] | 0.001 | 0.001 | 0.001 | 0.002 | 0.001 | 0.001 | 0.001
25 | CCCc1nc2c(C)cc(-c3nc4ccccc4n3C)cc2n1Cc1ccc(-c2ccccc2C(=O)O)cc1 | 0.011 | 0.017 | 0.008 | 0.014 | 0.01 | 0.013 | 0.013
26 | NS(=O)(=O)Cc1noc2ccccc12 [ZONISAMIDE] | 0.428 | 0.598 | 0.389 | 0.308 | 0.299 | 0.327 | 0.386
27 | CCN(C)C(=O)Oc1cccc([C@H](C)N(C)C)c1 [RIVASTIGMINE] | 0.487 | 0.241 | 0.389 | 0.345 | 0.341 | 0.338 | 0.316
28 | CN(C)CCCN1c2ccccc2CCc2ccc(Cl)cc21 [CLOMIPRAMINE] | 0.004 | 0.003 | 0.003 | 0.004 | 0.004 | 0.004 | 0.006
29 | CN[C@H]1CC[C@@H](c2ccc(Cl)c(Cl)c2)c2ccccc21 [SERTRALINE] |  |  |  | 0.001 |  |  | 
30 | CCCNC(=O)NS(=O)(=O)c1ccc(Cl)cc1 [CHLORPROPAMIDE] |  | 0.668 | 0.65 | 0.583 | 0.441 | 0.223 | 0.699
